Laboratory results reported in US20140228349A1, “5,7-SUBSTITUTED-IMIDAZO[1,2-C]PYRIMIDINES” (Array BioPharma Inc., priority 2011, published 2014).

Assays:
Type in all cases: biochemical
Human Tyk2 kinase domain = target: T1, Human Tyk2 kinase domain (Homo sapiens, UniProt P29597); assay: Tyk2 Inhibition Assay (Omnia kinase fluorescence peptide substrate); settings: averaged IC50 ranges; 10 μM (Km app) or 1 mM ATP, 2 nM Tyk2
T1 construct: comprising amino acids 886 to 1187; His10 (10 histidine residues) (C, cleaved yes); made in house
T1 sequence (P29597 886-1187): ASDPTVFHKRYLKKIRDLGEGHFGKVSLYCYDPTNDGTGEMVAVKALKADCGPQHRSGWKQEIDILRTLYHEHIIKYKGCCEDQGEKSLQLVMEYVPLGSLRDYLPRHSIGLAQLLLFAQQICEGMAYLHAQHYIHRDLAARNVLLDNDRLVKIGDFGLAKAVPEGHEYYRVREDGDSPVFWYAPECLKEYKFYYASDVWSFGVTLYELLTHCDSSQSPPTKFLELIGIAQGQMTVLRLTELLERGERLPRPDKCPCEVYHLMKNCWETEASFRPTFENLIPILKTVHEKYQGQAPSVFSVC
How it was run: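 Phosphorylation of 8 μM Omnia Y12 peptide followed kinetically by Sox fluorescence, ex 360/em 485 nm, every 50 s for 45 min. Enzyme: 2 nM Tyk2 kinase domain (aa 886–1187, His tag removed); ATP at 10 μM (Km app) or 1 mM; buffer HEPES pH 7.4 with MgCl2, Triton X-100, DTT. 10-point curves up to 10 μM, IC50 from 4-parameter logistic fit.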

JAK1 = target: T2, JAK1 (Homo sapiens, UniProt P23458); assay: JAK1 Inhibition Assay (Omnia kinase fluorescence peptide substrate); settings: averaged IC50 ranges; 40 μM (Km app) or 1 mM ATP, 15 nM JAK1
T2 construct: purchased Invitrogen Corporation, Carlsbad, Calif; IVGN PV4775
How it was run: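 15 nM JAK1, 8 μM Omnia Y12 peptide, 40 μM (Km app) or 1 mM ATP; 25 mM HEPES pH 7.4, 10 mM MgCl2, 2% DMSO. Fluorescence (ex 360/em 485 nm) read every 50 s over 45 min. IC50 by 4-parameter fit of percent of control, top dose 10 μM.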

JAK2 = target: T3, JAK2 (Homo sapiens, UniProt O60674); assay: JAK2 Inhibition Assay (Omnia kinase fluorescence peptide substrate); settings: averaged IC50 ranges; 25 μM (Km app) or 1 mM ATP, 5 nM JAK2
T3 construct: purchased Invitrogen Corporation, Carlsbad, Calif; IVGN PV4288

JAK3 = target: T4, JAK3 (Homo sapiens, UniProt P52333); assay: JAK3 Inhibition Assay (Omnia kinase fluorescence peptide substrate); settings: averaged IC50 ranges; 10 μM (Km app) or 1 mM ATP, 2.5 nM JAK3
T4 construct: purchased Invitrogen Corporation, Carlsbad, Calif; IVGN PV4080
T4 sequence (P52333 1-1124): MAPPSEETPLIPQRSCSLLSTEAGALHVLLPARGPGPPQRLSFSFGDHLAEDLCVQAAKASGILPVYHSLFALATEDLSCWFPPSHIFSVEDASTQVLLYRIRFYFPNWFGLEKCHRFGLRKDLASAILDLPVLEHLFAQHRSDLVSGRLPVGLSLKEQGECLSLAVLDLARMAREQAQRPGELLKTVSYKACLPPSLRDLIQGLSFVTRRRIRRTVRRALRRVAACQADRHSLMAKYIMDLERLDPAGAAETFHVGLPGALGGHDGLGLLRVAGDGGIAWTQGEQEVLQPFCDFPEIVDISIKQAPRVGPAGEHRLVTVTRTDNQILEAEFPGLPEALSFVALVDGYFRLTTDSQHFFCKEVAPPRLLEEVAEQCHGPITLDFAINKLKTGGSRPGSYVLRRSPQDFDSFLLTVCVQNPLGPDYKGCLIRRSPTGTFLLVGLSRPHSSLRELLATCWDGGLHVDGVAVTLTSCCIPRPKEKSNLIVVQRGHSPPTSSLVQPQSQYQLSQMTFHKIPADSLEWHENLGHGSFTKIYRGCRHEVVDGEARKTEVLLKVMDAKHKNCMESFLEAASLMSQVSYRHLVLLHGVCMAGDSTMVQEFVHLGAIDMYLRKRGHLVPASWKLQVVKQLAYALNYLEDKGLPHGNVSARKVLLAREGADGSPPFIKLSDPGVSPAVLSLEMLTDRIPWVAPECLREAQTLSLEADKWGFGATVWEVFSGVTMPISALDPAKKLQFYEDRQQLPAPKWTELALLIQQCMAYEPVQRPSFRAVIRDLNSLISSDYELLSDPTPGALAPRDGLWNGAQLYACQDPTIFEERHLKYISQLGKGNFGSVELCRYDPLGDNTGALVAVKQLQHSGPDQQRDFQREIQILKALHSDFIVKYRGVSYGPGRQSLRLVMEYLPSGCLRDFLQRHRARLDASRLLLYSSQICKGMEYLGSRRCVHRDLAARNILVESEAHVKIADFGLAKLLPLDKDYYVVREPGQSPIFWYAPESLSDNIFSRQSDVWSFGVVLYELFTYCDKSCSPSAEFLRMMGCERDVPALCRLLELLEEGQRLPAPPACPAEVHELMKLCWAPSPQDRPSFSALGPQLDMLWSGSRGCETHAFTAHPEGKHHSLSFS
How it was run: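 IC50 is the concentration giving 50 percent of control on a 4-parameter logistic fit of 10-point, 3-fold dilutions from a 10 μM top dose, at 2% final DMSO. Kinetic Sox fluorescence (360/485 nm) was monitored every 50 s for 45 min. Mix: JAK3 2.5 nM, Omnia Y7 peptide 10 μM, ATP 10 μM (Km app) or 1 mM, in HEPES pH 7.4 buffer with MgCl2, Triton X-100 and DTT.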

T3 sequence (O60674 whole entry): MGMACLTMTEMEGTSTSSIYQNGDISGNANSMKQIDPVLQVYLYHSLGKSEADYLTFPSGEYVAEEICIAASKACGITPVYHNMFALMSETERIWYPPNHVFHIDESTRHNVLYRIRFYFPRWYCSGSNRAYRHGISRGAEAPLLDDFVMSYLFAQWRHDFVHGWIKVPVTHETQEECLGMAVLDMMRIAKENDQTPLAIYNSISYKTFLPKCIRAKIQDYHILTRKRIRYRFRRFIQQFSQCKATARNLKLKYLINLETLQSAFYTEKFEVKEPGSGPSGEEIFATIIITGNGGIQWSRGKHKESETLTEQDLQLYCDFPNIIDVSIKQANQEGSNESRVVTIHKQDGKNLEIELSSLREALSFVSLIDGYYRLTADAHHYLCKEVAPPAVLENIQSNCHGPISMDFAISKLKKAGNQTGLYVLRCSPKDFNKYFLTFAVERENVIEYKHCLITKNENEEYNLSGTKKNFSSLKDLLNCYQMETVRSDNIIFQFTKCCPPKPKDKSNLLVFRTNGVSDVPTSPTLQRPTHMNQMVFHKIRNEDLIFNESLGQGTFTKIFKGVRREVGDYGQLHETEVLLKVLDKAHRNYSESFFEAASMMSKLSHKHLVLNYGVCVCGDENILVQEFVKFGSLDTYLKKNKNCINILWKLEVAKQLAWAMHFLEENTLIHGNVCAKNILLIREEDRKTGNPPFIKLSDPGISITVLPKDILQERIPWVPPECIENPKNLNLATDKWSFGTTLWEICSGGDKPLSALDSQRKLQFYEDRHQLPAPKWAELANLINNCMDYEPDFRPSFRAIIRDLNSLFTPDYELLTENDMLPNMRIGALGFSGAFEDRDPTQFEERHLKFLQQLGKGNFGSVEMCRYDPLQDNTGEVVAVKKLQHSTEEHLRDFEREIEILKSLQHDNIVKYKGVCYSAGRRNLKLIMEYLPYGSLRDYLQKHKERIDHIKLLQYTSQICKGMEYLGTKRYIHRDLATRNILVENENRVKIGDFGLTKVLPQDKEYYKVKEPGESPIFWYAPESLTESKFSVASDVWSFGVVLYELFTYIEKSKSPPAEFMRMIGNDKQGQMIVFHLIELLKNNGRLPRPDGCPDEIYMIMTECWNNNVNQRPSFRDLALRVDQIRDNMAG
T2 sequence (P23458 whole entry): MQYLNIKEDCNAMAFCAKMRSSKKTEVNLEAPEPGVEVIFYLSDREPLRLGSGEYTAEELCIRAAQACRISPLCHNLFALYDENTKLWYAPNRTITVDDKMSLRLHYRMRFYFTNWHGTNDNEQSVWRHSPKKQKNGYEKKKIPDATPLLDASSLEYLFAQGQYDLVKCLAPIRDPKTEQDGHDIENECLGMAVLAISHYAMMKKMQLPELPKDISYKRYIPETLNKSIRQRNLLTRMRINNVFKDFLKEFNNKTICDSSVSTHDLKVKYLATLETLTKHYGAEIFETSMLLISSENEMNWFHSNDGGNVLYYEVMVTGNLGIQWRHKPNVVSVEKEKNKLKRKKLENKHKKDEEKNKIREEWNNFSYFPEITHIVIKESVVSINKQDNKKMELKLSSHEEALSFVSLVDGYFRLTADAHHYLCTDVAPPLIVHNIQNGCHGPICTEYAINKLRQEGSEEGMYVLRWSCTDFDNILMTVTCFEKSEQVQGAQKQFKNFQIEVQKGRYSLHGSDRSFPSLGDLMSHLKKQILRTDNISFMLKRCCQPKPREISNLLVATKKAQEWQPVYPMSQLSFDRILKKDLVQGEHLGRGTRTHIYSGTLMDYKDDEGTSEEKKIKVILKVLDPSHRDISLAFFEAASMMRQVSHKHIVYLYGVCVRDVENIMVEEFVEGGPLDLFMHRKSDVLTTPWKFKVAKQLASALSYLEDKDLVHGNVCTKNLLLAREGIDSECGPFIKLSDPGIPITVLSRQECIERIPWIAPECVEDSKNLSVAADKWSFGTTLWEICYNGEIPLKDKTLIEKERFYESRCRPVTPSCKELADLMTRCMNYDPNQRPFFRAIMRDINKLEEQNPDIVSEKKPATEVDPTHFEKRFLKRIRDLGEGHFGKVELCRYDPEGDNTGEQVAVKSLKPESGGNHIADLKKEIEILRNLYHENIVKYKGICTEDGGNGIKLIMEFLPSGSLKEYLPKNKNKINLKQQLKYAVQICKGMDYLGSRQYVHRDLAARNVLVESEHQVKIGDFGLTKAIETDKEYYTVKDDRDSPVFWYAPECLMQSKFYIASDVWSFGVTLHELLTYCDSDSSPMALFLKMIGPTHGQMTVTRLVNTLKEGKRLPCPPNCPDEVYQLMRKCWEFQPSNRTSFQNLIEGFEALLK

| SMILES | IC50 (Human Tyk2 kinase domain) [nM] | IC50 (JAK1) [nM] | IC50 (JAK2) [nM] | IC50 (JAK3) [nM] |
| --- | --- | --- | --- | --- |
| Cn1cc(-c2cc3nccn3c(-c3cnn(C4(CC=C(F)F)CN(S(=O)(=O)C(F)(F)F)C4)c3)n2)cn1 [Example 32, 5-(1-(3-(3,3-difluoroallyl)-1-((trifluoromethyl)sulfonyl)azetidin-3-yl)-1H-pyrazol-4-yl)-7-(1-methyl-1H-pyrazol-4-yl)imidazo[1,2-c]pyrimidine] | < 10 | < 10 | < 10 | 10 to 100 |
| Cn1cc(-c2cc3nccn3c(-c3cnn(C(CC(N)=O)C4CC4)c3)n2)cn1 (centres unmarked) [Example 63, 3-cyclopropyl-3-(4-(7-(1-methyl-1H-pyrazol-4-yl)imidazo[1,2-c]pyrimidin-5-yl)-1H-pyrazol-1-yl)propanamide] | 100 to 1000 | > 1000 | 100 to 1000 | > 1000 |
| Cn1cc(-c2cc3nccn3c(-c3cnn(C(CCO)c4ccc(F)cc4)c3)n2)cn1 (centres unmarked) [Example 81, 3-(4-fluorophenyl)-3-(4-(7-(1-methyl-1H-pyrazol-4-yl)imidazo[1,2-c]pyrimidin-5-yl)-1H-pyrazol-1-yl)propan-1-ol] | 100 to 1000 | 100 to 1000 | 100 to 1000 | 100 to 1000 |
| Cn1cc(-c2cc3nccn3c(-c3cnn(C4CCCC4)c3)n2)cn1 [Example 34, 5-(1-cyclopentyl-1H-pyrazol-4-yl)-7-(1-methyl-1H-pyrazol-4-yl)imidazo[1,2-c]pyrimidine] | 100 to 1000 | > 1000 | 100 to 1000 | > 1000 |
| CCOCCC1(n2cc(-c3nc(-c4cnn(C)c4)cc4nccn34)cn2)CN(S(=O)(=O)C(F)(F)F)C1 [Example 33, 5-(1-(3-(2-ethoxyethyl)-1-((trifluoromethyl)sulfonyl)azetidin-3-yl)-1H-pyrazol-4-yl)-7-(1-methyl-1H-pyrazol-4-yl)imidazo[1,2-c]pyrimidine] | 10 to 100 | 10 to 100 | 10 to 100 | 100 to 1000 |
| CC(C1CC1)n1cc(-c2nc(-c3cnn(C)c3)cc3nccn23)cn1 (centres unmarked) [Example 14, 5-(1-(1-Cyclopropylethyl)-1H-pyrazol-4-yl)-7-(1-methyl-1H-pyrazol-4-yl)imidazo[1,2-c]pyrimidine] | 10 to 100 | > 1000 | 100 to 1000 | > 1000 |
| Cn1cc(-c2cc3nccn3c(-c3cnn(C4(C)CN(S(=O)(=O)C(F)(F)F)C4)c3)n2)cn1 [Example 16, 5-(1-(3-Methyl-1-(trifluoromethylsulfonyl)azetidin-3-yl)-1H-pyrazol-4-yl)-7-(1-methyl-1H-pyrazol-4-yl)imidazo[1,2-c]pyrimidine] | 10 to 100 | 100 to 1000 | 100 to 1000 | > 1000 |
| CC(=O)N1CC(CCF)(n2cc(-c3nc(-c4cnn(C)c4)cc4nccn34)cn2)C1 [Example 96, 1-(3-(2-fluoroethyl)-3-(4-(7-(1-methyl-1H-pyrazol-4-yl)imidazo[1,2-c]pyrimidin-5-yl)-1H-pyrazol-1-yl)azetidin-1-yl)ethanone] | > 1000 | > 1000 | > 1000 | > 1000 |
| Cn1cc(-c2cc3nccn3c(-c3cnn(C(CCO)C4CCCCC4)c3)n2)cn1 (centres unmarked) [Example 73, 3-cyclohexyl-3-(4-(7-(1-methyl-1H-pyrazol-4-yl)imidazo[1,2-c]pyrimidin-5-yl)-1H-pyrazol-1-yl)propan-1-ol] | 100 to 1000 | > 1000 | 100 to 1000 | > 1000 |
| CC=C[C@@H](C1CC1)n1cc(-c2nc(-c3cnn(C)c3)cc3nccn23)cn1 [Example 39, (R)-5-(1-(1-cyclopropylbut-2-en-1-yl)-1H-pyrazol-4-yl)-7-(1-methyl-1H-pyrazol-4-yl)imidazo[1,2-c]pyrimidine] | 10 to 100 | 100 to 1000 | 100 to 1000 | 100 to 1000 |
| Cn1cc(-c2cc3nccn3c(-c3cnn(C4(CCF)CN(S(=O)(=O)C(F)(F)F)C4)c3)n2)cn1 [Example 18, 5-(1-(3-(2-Fluoroethyl)-1-(trifluoromethylsulfonyl)azetidin-3-yl)-1H-pyrazol-4-yl)-7-(1-methyl-1H-pyrazol-4-yl)imidazo[1,2-c]pyrimidine] | < 10 | 100 to 1000 | 10 to 100 | 100 to 1000 |
| Cn1cc(-c2cc3nccn3c(-c3cnn(C(CCO)C4CC4)c3)n2)cn1 (centres unmarked) [Example 13, 3-cyclopropyl-3-(4-(7-(1-methyl-1H-pyrazol-4-yl)imidazo[1,2-c]pyrimidin-5-yl)-1H-pyrazol-1-yl)propan-1-ol] | 100 to 1000 | > 1000 | 100 to 1000 | > 1000 |
| Cn1cc(-c2cc3nccn3c(-c3cnn(C(C4CC4)C4CC4)c3)n2)cn1 [Example 9, 5-(1-(Dicyclopropylmethyl)-1H-pyrazol-4-yl)-7-(1-methyl-1H-pyrazol-4-yl)imidazo[1,2-c]pyrimidine] | 10 to 100 | > 1000 | 100 to 1000 | 100 to 1000 |
| Cc1cc(-c2cc3nccn3c(-c3cnn(C4(CCF)CN(S(=O)(=O)C(F)(F)F)C4)c3)n2)[nH]n1 [Example 58, 5-(1-(3-(2-fluoroethyl)-1-((trifluoromethyl)sulfonyl)azetidin-3-yl)-1H-pyrazol-4-yl)-7-(3-methyl-1H-pyrazol-5-yl)imidazo[1,2-c]pyrimidine] | < 10 | 100 to 1000 | 10 to 100 | 100 to 1000 |
| Cn1cc(-c2cc3nccn3c(-c3ccn([C@@H](C[C@H](O)C(F)(F)F)C4CC4)c3)n2)cn1 [Example 102, (2S,4S)-4-cyclopropyl-1,1,1-trifluoro-4-(3-(7-(1-methyl-1H-pyrazol-4-yl)imidazo[1,2-c]pyrimidin-5-yl)-1H-pyrrol-1-yl)butan-2-ol] | 10 to 100 | 100 to 1000 | 100 to 1000 | > 1000 |
| CSCCn1cc(-c2nc(-c3cnn(C)c3)cc3nccn23)cn1 [Example 21, 7-(1-methyl-1H-pyrazol-4-yl)-5-(1-(2-(methylthio)ethyl)-1H-pyrazol-4-yl)imidazo[1,2-c]pyrimidine] | 10 to 100 | 100 to 1000 | 10 to 100 | 100 to 1000 |
| Cn1cc(-c2cc3nccn3c(-c3cnn(C4(CCF)CN(CC(F)(F)F)C4)c3)n2)cn1 [Example 19, 5-(1-(3-(2-Fluoroethyl)-1-(2,2,2-trifluoroethyl)azetidin-3-yl)-1H-pyrazol-4-yl)-7-(1-methyl-1H-pyrazol-4-yl)imidazo[1,2-c]pyrimidine] | 10 to 100 | > 1000 | 100 to 1000 | > 1000 |
